According to ChEMBL document CHEMBL2086332, “Identification of a selective small molecule inhibitor of breast cancer stem cells” (Bioorg Med Chem Lett, 2012):
≈ marks a conversion by molar mass, not a printed value. Calls of active or inactive are those of the source. The calls are words filed in the database; no cut-off is given here.

Tests used:
[1] = Growth inhibition of human breast cancer stem cells; format: functional
[2] = Growth inhibition of human mammary epithelial cells at 20 uM; format: cell-based; details: epithelial cell
[3] = Growth inhibition of human mammary epithelial cells; format: cell-based; details: Epithelial cell
Homo sapiens = species: Homo sapiens; assay: Growth inhibition of human breast cancer stem cells at 20 uM; format: functional
[4] = Stability in phosphate buffered saline with 0.1% DMSO assessed as compound remaining measured after 48 hrs by UPLC-MS method; format: physicochemical; details: read-out: Stability
[5] = Solubility in phosphate buffered saline at 100 microM with 1% DMSO at pH 7.4 at 23 degC by UPLC-MS method; format: physicochemical
[6] = Protein binding in human plasma incubated for 48 hrs by UPLC-MS method; format: ADME, cell-free; details: read-out: PPB (converted)
[7] = Stability in human plasma assessed as compound remaining measured after 5 hrs by UPLC-MS method; format: ADME, cell-free; details: read-out: Stability
[8] = Stability in presence of glutathione containing medium assessed as compound remaining measured after 48 hrs by UPLC-MS method; format: physicochemical; details: read-out: Stability

Row | SMILES | EC50 [1] | growth inhibition (GI) [2] | EC50 [3] | growth inhibition (GI) (Homo sapiens) | other results
1 | Cc1ccccc1OCC(=O)N/N=C/c1ccc[nH]1 | 40.7 µM | Non-toxic |  |  | 
2 | O=C(COc1ccc(Cl)cc1Cl)N/N=C/c1ccccc1O | 79.5 µM |  | 56.3 µM |  | 
3 | O=C(COc1ccc(Cl)cc1Cl)N/N=C/c1c[nH]cn1 |  | Non-toxic |  | inactive | 
4 | O=C(COc1ccc2c(c1)OCO2)N/N=C/c1ccc[nH]1 | 36.2 µM |  | 21 µM |  | 
5 | O=C(COc1ccc2ccccc2c1Br)N/N=C/c1ccc[nH]1 | 1.11 µM |  | 3.03 µM |  | 
6 | N#Cc1ccccc1OCC(=O)N/N=C/c1ccc[nH]1 |  | Non-toxic |  | inactive | 
7 | Cn1cccc1/C=N/NC(=O)COc1ccc(Cl)cc1Cl |  | Non-toxic |  | inactive | 
8 | O=C(COc1ccc(Cl)cc1Cl)N/N=C/c1ccccc1 |  | Non-toxic |  | inactive | 
9 | O=C(COc1ccc(Cl)cc1Cl)N/N=C/c1ccco1 |  | Non-toxic |  | inactive | 
10 | O=C(COc1ccc(Cl)cc1)N/N=C/c1ccc[nH]1 | 22.5 µM | Non-toxic |  |  | 
11 | Cc1cc(Br)ccc1OCC(=O)N/N=C/c1ccc[nH]1 | 3.76 µM | Non-toxic |  |  | 
12 | O=C(N/N=C/c1ccc[nH]1)C1CC1c1ccc(Cl)cc1Cl (stereo not drawn) | 59.1 µM | Non-toxic |  |  | 
13 | O=C(COc1c(Cl)cccc1Cl)N/N=C/c1ccc[nH]1 | 126 µM | Non-toxic |  |  | 
14 | CC(Oc1ccc(F)cc1Cl)C(=O)N/N=C/c1ccc[nH]1 (stereo not drawn) | 35.4 µM | Non-toxic |  |  | 
15 | CC(C)(C)c1ccc2c(c1)OC(C(=O)N/N=C/c1ccc[nH]1)CO2 (stereo not drawn) | 2.51 µM |  | 15 µM |  | 
16 | O=C(CSc1ccc(Cl)cc1Cl)N/N=C/c1ccc[nH]1 | 2.3 µM |  | 18 µM |  | 
17 | COc1ccccc1OCC(=O)N/N=C/c1ccc[nH]1 |  | Non-toxic |  | inactive | 
18 | Cc1cc(C)c(OCC(=O)N/N=C/c2ccc[nH]2)c(C)c1 | 9.42 µM | Non-toxic |  |  | 
19 | O=C(COc1ccc(Cl)cc1Cl)N/N=C/c1ccccn1 |  | Non-toxic |  | inactive | 
20 | O=C(COc1ccccc1Cl)N/N=C/c1ccc[nH]1 | 33.5 µM | Non-toxic |  |  | 

Row | SMILES | EC50 [1] | growth inhibition (GI) [2] | EC50 [3] | growth inhibition (GI) (Homo sapiens) | other results
21 | Cc1cc(Cl)ccc1OCC(=O)N/N=C/c1ccc[nH]1 | 2.89 µM |  | 26.7 µM |  | 
22 | O=C(N/N=C/c1ccc[nH]1)C1COc2cc3ccccc3cc2O1 (stereo not drawn) | 4.21 µM |  | 18.9 µM |  | 
23 | O=C(COc1ccc(Cl)cc1Cl)N/N=C/c1cc[nH]n1 |  | Non-toxic |  | inactive | 
24 | CC(C)(C)c1ccc(C2CC2C(=O)N/N=C/c2ccc[nH]2)cc1 (stereo not drawn) | 0.79 µM |  | 2.14 µM |  | 
25 | C/C(=N\NC(=O)COc1ccc(Cl)cc1Cl)c1ccc[nH]1 |  | Non-toxic |  | inactive | 
26 | Cc1ccc(/C=N/NC(=O)COc2ccc(Cl)cc2Cl)[nH]1 | 14.3 µM |  | 16.9 µM |  | 
27 | O=C(COc1ccc(Cl)cc1Br)N/N=C/c1ccc[nH]1 | 3.16 µM |  | 20.9 µM |  | 
28 | O=C(COc1ccc(Cl)cc1Cl)N/N=C/c1cccs1 |  | Non-toxic |  | inactive | 
29 | CC(Oc1cc(Cl)ccc1Cl)C(=O)N/N=C/c1ccc[nH]1 (stereo not drawn) | 33.4 µM |  | 97.7 µM |  | 
30 | O=C(COc1ccc(Cl)cc1Cl)N/N=C/c1cc2ccccc2[nH]1 | 125 µM |  | 23.5 µM |  | 
31 | O=C(COc1ccc(Cl)cc1Cl)N/N=C/c1ccc[nH]1 | 3.33 µM | Non-toxic |  |  | 
32 | Cc1ccccc1NCC(=O)N/N=C/c1ccc[nH]1 |  | Non-toxic |  | inactive | 
33 | O=C(COc1cc(Cl)ccc1Cl)N/N=C/c1ccc[nH]1 | 3.39 µM | Non-toxic |  |  | 
34 | O=C(CCc1ccc2c(c1)OCO2)N/N=C/c1ccc[nH]1 | 53.4 µM | Non-toxic |  |  | 
35 | O=C(N/N=C/c1ccc[nH]1)c1cc2ccccc2o1 | 6.32 µM | Non-toxic |  |  | 
36 | O=C(COc1ccc(F)cc1Cl)N/N=C/c1ccc[nH]1 | 8.86 µM |  | 33.6 µM |  | 
37 | O=C(N/N=C/c1ccc[nH]1)C1CC1c1ccccc1 (stereo not drawn) | 12.9 µM | Non-toxic |  |  | 
38 | O=C(COc1c(Cl)cc(Cl)cc1Cl)N/N=C/c1ccc[nH]1 | 1.16 µM |  | 27.6 µM |  | remaining at 48 h [4]: 76%; solubility kinetic at 100 µM [5]: 6.3 µM (≈ 2.18 µg/mL); fraction unbound at 48 h [6]: 0.012; remaining at 5 h [7]: 49%; remaining at 48 h [8]: 85%
39 | O=C(N/N=C/c1ccc[nH]1)C1Cc2ccccc2O1 (stereo not drawn) |  | Non-toxic |  | inactive | 
